Test results: patent US20230028539A1, “PHARMACEUTICAL COMPOSITION, COMPLEMENTARY KIT AND APPLICATION THEREOF” (SHANGHAI PHARMACEUTICALS HOLDING CO., LTD., priority 2019, published 2023)
Read-outs that look alike come from different tables or passages of the source.

Tests used:
[1] = test system: 6-OHDA-induced unilateral damage PD model; experiment: Apomorphine-induced contralateral circling test in 6-OHDA-induced rat Parkinson's disease model; assay type: in vivo, male Wistar rat; conditions: after 29 days of treatment, FIG. 3
Procedure: 3.1.2 The animals were injected intraperitoneally with APO (0.5 mg/kg, 2 mL/kg) 3 minutes before testing.
3.1.3 The animals were placed in a circular test box after dosing. Changes in animal behavior were observed and recorded by Ethovi si on video software, and the number of revolutions of each animal within 30 min was counted manually.
3.1.4 APO-induced circling behavior: The animal circled rightwards with the left hind limb as the fulcrum. One turn was counted as one revolution by taking the head of the rat as a reference. Animals with more than 180 revolutions within 30 min were qualified rat Parkinson's disease models.
3.2.1 140 animals were randomly selected, and intramuscularly injected with Zoletil at 30 mg/kg in combination with 3 mg/kg of xylazine hydrochloride for general anesthesia before the operation.
3.2.7 The injection of 6-OHDA was started 2 min after the needle reached the designated depth. […]
3.3.3 The animals were placed in a circular test box after dosing. Changes in animal behavior were observed and recorded by Ethovision video software, and the number of revolutions of each animal within 30 min was counted manually.
3.3.4 APO-induced circling behavior: The animal circled rightwards with the left hind limb as the fulcrum. One turn was counted as one revolution by taking the head of the rat as a reference. […]

[2] = test system: MPTP-induced mouse Parkinson's disease model; experiment: MPTP-induced mouse Parkinson's disease model, dopamine content in dorsal striatum by LC-MS; assay type: in vivo, male C57BL/6J mice
Procedure: Animals in control group were injected with an equal volume of […]. After 6 weeks, mice were euthanized and the dorsal striatum was separated after normal saline perfusion, weighed and preserved in a −80° C. freezer. The content of dopamine in dorsal striatal was determined by LC-MS. [table]

patients with early PD = conditions: 24 weeks, cited from earlier work
MAO-B = target: T1, MAO-B (Homo sapiens, UniProt P27338); conditions: cited from earlier work; for inhibitory strength to MAO-B than that to MAO-A: selectivity MAO-B over MAO-A
T1 sequence (P27338 1-520): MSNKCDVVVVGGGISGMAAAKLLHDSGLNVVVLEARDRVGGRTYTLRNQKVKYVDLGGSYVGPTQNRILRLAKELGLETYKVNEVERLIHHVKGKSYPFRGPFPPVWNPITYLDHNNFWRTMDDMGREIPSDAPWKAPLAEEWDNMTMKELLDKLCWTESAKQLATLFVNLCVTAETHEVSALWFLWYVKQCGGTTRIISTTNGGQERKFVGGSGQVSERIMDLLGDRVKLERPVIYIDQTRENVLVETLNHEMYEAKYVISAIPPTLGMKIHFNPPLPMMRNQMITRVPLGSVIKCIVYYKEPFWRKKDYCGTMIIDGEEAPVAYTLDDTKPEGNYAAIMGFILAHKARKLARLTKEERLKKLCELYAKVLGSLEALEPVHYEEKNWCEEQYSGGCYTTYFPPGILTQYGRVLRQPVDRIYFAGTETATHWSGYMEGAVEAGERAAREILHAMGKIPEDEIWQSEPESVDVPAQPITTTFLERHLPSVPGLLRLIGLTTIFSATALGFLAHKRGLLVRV

Row | SMILES | reduction in the number of revolutions compared with that before treatment ([1]; G4, PPX 0.1 mpk P.O. QD) | effect on dopamine reduction in the MPTP model (FIG. 1) ([2]; average dopamine concentration in mouse brain, all dose groups) | dopamine levels in dorsal striatum compared with modeling group G2 ([2]; compound B group (15 mg/kg i.p. QD 6 weeks)) | elevation in the number of revolutions compared with that before treatment ([1]; G3, SAF 15 mpk P.O. QD) | improvement of movement symptoms (total UPDRS score, LPDRS [sic]) (patients with early PD; safinamide 100 mg/d in combination with DA receptor agonist) | improvement of movement symptoms (total UPDRS score, LPDRS [sic]) (patients with early PD; safinamide 200 mg/d in combination with DA receptor agonist) | time after discontinuation until physiological function completely restored (MAO-B; after discontinuation) | reversibility of MAO-B inhibition (MAO-B) | inhibitory strength to MAO-B than that to MAO-A (MAO-B)
1 | CCCN[C@H]1CCc2nc(N)sc2C1 [Compound A, Pramipexole] | 24% |  |  |  |  |  |  |  | 
2 | C[C@H](NCc1ccc(OCc2cccc(F)c2)cc1)C(N)=O [Compound B, Safinamide] |  | improvement effects | significantly higher | 5% | effective | no effect in improving movement symptoms | 8 h | reversible | 5000 fold
3 | C#CCN[C@@H]1CCc2ccccc21 [rasagiline] |  |  |  |  |  |  |  | irreversible | 103 fold
